Measured values as given in the supplement of paper PMC10627819.

Key:
B. subtilis 168 [1] = assay: fitness (endpoint OD595 vs no drug) (fraction); higher = more growth
How it was run: (§1)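 Bacterial growth was followed in 384-well plates seeded at OD595 0.01, with 30 µl per well, or 55 µl for S. pneumoniae, in TSB, LB Lennox or CY at 37 °C. OD595 was read every 30 min for 14 h, and each reading had the first reading subtracted as background. Fitness is the background-corrected optical density at entry into stationary phase divided by the robust mean of the no-drug control wells. This ratio is capped at 1.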

S. aureus DSM 20231 [2] = assay: as above
How it was run: as §1

S. pneumoniae D39V [3] = assay: as above
How it was run: as §1

S. aureus Newman [4] = assay: as above
How it was run: as §1

B. subtilis 168 [5] = assay: Bliss interaction score (quartile over a dose matrix) (fitness difference); higher = more antagonism (negative = synergy)
How it was run: (§2)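 The Bliss score takes observed fitness and subtracts the expected fitness, calculated as a product of single-drug fitness values. Those single-drug values were inferred from the combination data. Fitness is OD595 at entry into stationary phase divided by the plate's robust no-drug mean, capped at 1, and the score is summarised by quartiles across technical, biological and donor/recipient replicates.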

S. aureus DSM 20231 [6] = assay: as above
How it was run: as §2

S. pneumoniae D39V [7] = assay: as above
How it was run: as §2

S. aureus Newman [8] = assay: as above
How it was run: as §2
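For Bliss interaction score (quartile over a dose matrix) in this document: first quartile when negative (synergy) and third quartile when positive (antagonism).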

COc1cccc2c1C(=O)c1c(O)c3c(c(O)c1C2=O)C[C@@](O)(C(=O)CO)C[C@@H]3O[C@H]1C[C@H](N)[C@H](O)[C@H](C)O1 [Doxorubicin] + Cc1cc(NS(=O)(=O)c2ccc(N)cc2)no1 [Sulfamethoxazol]
fitness, one replicate
Details	first compound 0.625 µg/mL	first compound 1.25 µg/mL	first compound 2.5 µg/mL
B. subtilis 168 [1], partner 0.5 µg/mL	0.938	0.883	0.969
S. aureus Newman [4], partner 8 µg/mL	0.887	0.877	0.875

fitness
Details	first compound 0.25 µg/mL	first compound 0.5 µg/mL	first compound 0.625 µg/mL	first compound 1 µg/mL	first compound 1.25 µg/mL	first compound 2.5 µg/mL
B. subtilis 168 [1], partner 1 µg/mL	–	–	0.929	–	0.885	0.723
B. subtilis 168 [1], partner 2 µg/mL	–	–	0.878	–	0.865	0.665
B. subtilis 168 [1], partner 4 µg/mL	–	–	≥ 1	–	0.893	0.695
S. aureus DSM 20231 [2], partner 1 µg/mL	–	–	0.831	–	0.791	0.737
S. aureus DSM 20231 [2], partner 2 µg/mL	–	–	0.83	–	0.911	0.869
S. aureus DSM 20231 [2], partner 4 µg/mL	–	–	0.812	–	0.874	0.845
S. aureus Newman [4], partner 1 µg/mL	–	–	0.852	–	0.816	0.758
S. aureus Newman [4], partner 2 µg/mL	–	–	0.856	–	0.802	0.765
S. aureus Newman [4], partner 4 µg/mL	–	–	0.854	–	0.835	0.787
S. pneumoniae D39V [3], partner 1 µg/mL	0.943	0.93	–	0.904	–	–
S. pneumoniae D39V [3], partner 2 µg/mL	0.949	0.97	–	0.936	–	–
S. pneumoniae D39V [3], partner 4 µg/mL	0.965	0.954	–	0.92	–	–

Details	Bliss interaction score
B. subtilis 168 [5]	0.0735
S. aureus DSM 20231 [6]	-0.0832
S. aureus Newman [8]	-0.0666
S. pneumoniae D39V [7]	0.0685

COc1cccc2c1C(=O)c1c(O)c3c(c(O)c1C2=O)C[C@@](O)(C(=O)CO)C[C@@H]3O[C@H]1C[C@H](N)[C@H](O)[C@H](C)O1 [Doxorubicin] + C[C@@H]1O[C@@H]1P(=O)(O)O [Fosfomycin]
Details	fitness
B. subtilis 168 [1], first compound 0.625 µg/mL, partner 1.562 µg/mL	0.7
B. subtilis 168 [1], first compound 0.625 µg/mL, partner 3.124 µg/mL	0.605
B. subtilis 168 [1], first compound 0.625 µg/mL, partner 6.248 µg/mL	0.412
B. subtilis 168 [1], first compound 1.25 µg/mL, partner 1.562 µg/mL	0.655
B. subtilis 168 [1], first compound 1.25 µg/mL, partner 3.124 µg/mL	0.518
B. subtilis 168 [1], first compound 1.25 µg/mL, partner 6.248 µg/mL	0.302
B. subtilis 168 [1], first compound 2.5 µg/mL, partner 1.562 µg/mL	0.369
B. subtilis 168 [1], first compound 2.5 µg/mL, partner 6.248 µg/mL	0.0432
S. aureus DSM 20231 [2], first compound 0.625 µg/mL, partner 0.781 µg/mL	0.685
S. aureus DSM 20231 [2], first compound 0.625 µg/mL, partner 1.562 µg/mL	0.587
S. aureus DSM 20231 [2], first compound 0.625 µg/mL, partner 3.124 µg/mL	0.5
S. aureus DSM 20231 [2], first compound 1.25 µg/mL, partner 0.781 µg/mL	0.681
S. aureus DSM 20231 [2], first compound 1.25 µg/mL, partner 1.562 µg/mL	0.603
S. aureus DSM 20231 [2], first compound 1.25 µg/mL, partner 3.124 µg/mL	0.493
S. aureus DSM 20231 [2], first compound 2.5 µg/mL, partner 0.781 µg/mL	0.637
S. aureus DSM 20231 [2], first compound 2.5 µg/mL, partner 1.562 µg/mL	0.506
S. aureus DSM 20231 [2], first compound 2.5 µg/mL, partner 3.124 µg/mL	0.449
S. aureus Newman [4], first compound 0.625 µg/mL, partner 0.781 µg/mL	0.615
S. aureus Newman [4], first compound 0.625 µg/mL, partner 1.562 µg/mL	0.547
S. aureus Newman [4], first compound 0.625 µg/mL, partner 3.124 µg/mL	0.212
S. aureus Newman [4], first compound 1.25 µg/mL, partner 0.781 µg/mL	0.618
S. aureus Newman [4], first compound 1.25 µg/mL, partner 1.562 µg/mL	0.535
S. aureus Newman [4], first compound 1.25 µg/mL, partner 3.124 µg/mL	0.138
S. aureus Newman [4], first compound 2.5 µg/mL, partner 0.781 µg/mL	0.595
S. aureus Newman [4], first compound 2.5 µg/mL, partner 1.562 µg/mL	0.443
S. aureus Newman [4], first compound 2.5 µg/mL, partner 3.124 µg/mL	0.0485
S. pneumoniae D39V [3], first compound 0.25 µg/mL, partner 1.25 µg/mL	0.881
S. pneumoniae D39V [3], first compound 0.25 µg/mL, partner 2.5 µg/mL	0.852
S. pneumoniae D39V [3], first compound 0.25 µg/mL, partner 5 µg/mL	0.635
S. pneumoniae D39V [3], first compound 0.5 µg/mL, partner 1.25 µg/mL	0.938
S. pneumoniae D39V [3], first compound 0.5 µg/mL, partner 2.5 µg/mL	0.859
S. pneumoniae D39V [3], first compound 0.5 µg/mL, partner 5 µg/mL	0.646
S. pneumoniae D39V [3], first compound 1 µg/mL, partner 1.25 µg/mL	0.861
S. pneumoniae D39V [3], first compound 1 µg/mL, partner 2.5 µg/mL	0.823
S. pneumoniae D39V [3], first compound 1 µg/mL, partner 5 µg/mL	0.669

Details	Bliss interaction score
B. subtilis 168 [5]	-0.142
S. aureus DSM 20231 [6]	0.0338
S. aureus Newman [8]	0.122
S. pneumoniae D39V [7]	-0.0488

COc1cccc2c1C(=O)c1c(O)c3c(c(O)c1C2=O)C[C@@](O)(C(=O)CO)C[C@@H]3O[C@H]1C[C@H](N)[C@H](O)[C@H](C)O1 [Doxorubicin] + CN[C@@H]1[C@H](O)[C@H](NC)[C@H]2O[C@@]3(O)C(=O)C[C@@H](C)O[C@H]3O[C@@H]2[C@H]1O [Spectinomycin]
fitness
Details	first compound 0.25 µg/mL	first compound 0.5 µg/mL	first compound 0.625 µg/mL	first compound 1 µg/mL	first compound 1.25 µg/mL	first compound 2.5 µg/mL
B. subtilis 168 [1], partner 2 µg/mL	–	–	0.919	–	0.905	0.62
B. subtilis 168 [1], partner 4 µg/mL	–	–	0.965	–	0.954	0.594
B. subtilis 168 [1], partner 8 µg/mL	–	–	0.817	–	0.88	0.615
S. aureus DSM 20231 [2], partner 4 µg/mL	–	–	0.901	–	0.846	0.808
S. aureus DSM 20231 [2], partner 8 µg/mL	–	–	0.882	–	0.89	0.84
S. aureus DSM 20231 [2], partner 16 µg/mL	–	–	0.789	–	0.824	0.736
S. aureus Newman [4], partner 4 µg/mL	–	–	0.796	–	0.754	0.71
S. aureus Newman [4], partner 8 µg/mL	–	–	0.797	–	0.762	0.681
S. aureus Newman [4], partner 16 µg/mL	–	–	0.713	–	0.623	0.577
S. pneumoniae D39V [3], partner 4 µg/mL	0.908	0.938	–	0.921	–	–
S. pneumoniae D39V [3], partner 8 µg/mL	0.827	0.862	–	0.838	–	–
S. pneumoniae D39V [3], partner 16 µg/mL	0.686	0.661	–	0.632	–	–

fitness, one replicate
Details	first compound 0.625 µg/mL	first compound 1.25 µg/mL	first compound 2.5 µg/mL
S. aureus DSM 20231 [2], partner 32 µg/mL	0.768	0.732	0.624
S. aureus DSM 20231 [2], partner 64 µg/mL	0.0549	0.0594	0.0266
S. aureus Newman [4], partner 32 µg/mL	0.549	0.394	0.215
S. aureus Newman [4], partner 64 µg/mL	0.0592	0.0432	0.0224

Details	Bliss interaction score
B. subtilis 168 [5]	0.0605
S. aureus DSM 20231 [6]	-0.0571
S. aureus Newman [8]	-0.0787
S. pneumoniae D39V [7]	0.0399

Cc1ncc([N+](=O)[O-])n1CCO [Metronidazole] + Cc1onc(-c2ccccc2)c1C(=O)N[C@@H]1C(=O)N2[C@@H]1SC(C)(C)[C@@H]2C(=O)O [Oxacillin]
fitness
Details	first compound 0.625 µg/mL	first compound 1.073 µg/mL	first compound 1.25 µg/mL	first compound 2.145 µg/mL	first compound 2.5 µg/mL	first compound 4.29 µg/mL	first compound 5 µg/mL
B. subtilis 168 [1], partner 0.002 µg/mL	0.972	–	0.962	–	0.942	–	–
B. subtilis 168 [1], partner 0.004 µg/mL	0.957	–	≥ 1	–	0.942	–	–
B. subtilis 168 [1], partner 0.008 µg/mL	0.946	–	0.869	–	0.858	–	–
S. aureus DSM 20231 [2], partner 0.0156 µg/mL	0.937	–	≥ 1	–	0.991	–	–
S. aureus DSM 20231 [2], partner 0.0312 µg/mL	–	–	0.816	–	0.828	–	–
S. aureus DSM 20231 [2], partner 0.0625 µg/mL	0.632	–	0.645	–	–	–	–
S. aureus Newman [4], partner 0.0156 µg/mL	0.772	–	0.785	–	0.768	–	–
S. aureus Newman [4], partner 0.0312 µg/mL	0.737	–	0.786	–	0.702	–	–
S. aureus Newman [4], partner 0.0625 µg/mL	0.658	–	0.551	–	0.601	–	–
S. pneumoniae D39V [3], partner 0.01 µg/mL	–	0.971	0.985	0.891	0.981	0.965	0.97
S. pneumoniae D39V [3], partner 0.02 µg/mL	–	0.964	0.959	0.967	0.995	–	0.948
S. pneumoniae D39V [3], partner 0.04 µg/mL	–	0.845	0.625	0.888	0.648	0.839	0.566

fitness, one replicate
Details	first compound 0.625 µg/mL	first compound 0.781 µg/mL	first compound 1.25 µg/mL	first compound 1.562 µg/mL	first compound 2.5 µg/mL	first compound 3.124 µg/mL
B. subtilis 168 [1], partner 0.075 µg/mL	0.548	–	0.664	–	0.507	–
B. subtilis 168 [1], partner 0.15 µg/mL	0.0434	–	0.0679	–	0.0716	–
B. subtilis 168 [1], partner 0.3 µg/mL	0.0488	–	0.0601	–	0.0718	–
S. aureus Newman [4], partner 0.0156 µg/mL	–	0.826	–	0.749	–	0.817
S. aureus Newman [4], partner 0.0312 µg/mL	–	0.737	–	0.737	–	0.721
S. aureus Newman [4], partner 0.0625 µg/mL	–	0.655	–	0.643	–	0.705

Details	Bliss interaction score
B. subtilis 168 [5]	0.0534
S. aureus DSM 20231 [6]	0.0451
S. aureus Newman [8]	0.0703
S. pneumoniae D39V [7]	0.144
